The text below walks through data of ChEMBL document CHEMBL1201862, “PubChem BioAssay data set” (2004).

The target in assay [1] is T1, RNA-binding protein pos-1 (Caenorhabditis elegans, UniProt G5EF15).
T1 sequence (G5EF15 whole entry): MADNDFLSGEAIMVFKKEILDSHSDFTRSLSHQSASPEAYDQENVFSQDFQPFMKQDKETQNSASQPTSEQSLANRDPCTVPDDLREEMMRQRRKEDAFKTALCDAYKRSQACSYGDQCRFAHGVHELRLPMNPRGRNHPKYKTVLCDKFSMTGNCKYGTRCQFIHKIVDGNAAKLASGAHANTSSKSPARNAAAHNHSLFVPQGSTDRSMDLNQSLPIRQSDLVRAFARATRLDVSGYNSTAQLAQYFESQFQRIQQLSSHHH
Nature of the assay: inhibitors of POS-1/mex-3 RNA binding, dose response, biochemical, fluorescence polarization (AID 1964).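 Note: purified POS-1 fused to maltose binding protein made in E. coli; potency of compounds blocking POS-1 binding to fluorescent RNA.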 A general note: Polarisation of emitted light reports the rotation of a fluorescent probe.

Assay [2] concerns the target T2, Zinc finger protein mex-5 (Caenorhabditis elegans, UniProt Q9XUB2).
T2 sequence (Q9XUB2 whole entry): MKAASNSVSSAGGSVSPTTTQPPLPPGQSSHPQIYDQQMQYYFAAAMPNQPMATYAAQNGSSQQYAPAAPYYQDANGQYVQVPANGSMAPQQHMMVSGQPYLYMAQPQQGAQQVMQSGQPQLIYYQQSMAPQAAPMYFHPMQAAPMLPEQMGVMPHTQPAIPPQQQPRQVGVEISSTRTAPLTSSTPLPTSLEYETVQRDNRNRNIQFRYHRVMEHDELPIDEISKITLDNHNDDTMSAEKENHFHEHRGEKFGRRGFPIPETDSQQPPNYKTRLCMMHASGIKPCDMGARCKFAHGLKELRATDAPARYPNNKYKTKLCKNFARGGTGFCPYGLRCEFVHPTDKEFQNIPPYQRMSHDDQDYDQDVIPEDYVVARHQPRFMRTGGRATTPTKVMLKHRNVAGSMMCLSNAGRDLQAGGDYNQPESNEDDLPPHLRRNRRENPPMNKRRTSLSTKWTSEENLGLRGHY
In words: MEX-5/TCR-2 RNA interaction inhibitors, dose response, biochemical, C. elegans, fluorescence polarization (AID 1960).

Assay [3] addresses T3, DNA repair and recombination protein RAD54-like (Homo sapiens, UniProt Q92698).
T3 sequence (Q92698 whole entry): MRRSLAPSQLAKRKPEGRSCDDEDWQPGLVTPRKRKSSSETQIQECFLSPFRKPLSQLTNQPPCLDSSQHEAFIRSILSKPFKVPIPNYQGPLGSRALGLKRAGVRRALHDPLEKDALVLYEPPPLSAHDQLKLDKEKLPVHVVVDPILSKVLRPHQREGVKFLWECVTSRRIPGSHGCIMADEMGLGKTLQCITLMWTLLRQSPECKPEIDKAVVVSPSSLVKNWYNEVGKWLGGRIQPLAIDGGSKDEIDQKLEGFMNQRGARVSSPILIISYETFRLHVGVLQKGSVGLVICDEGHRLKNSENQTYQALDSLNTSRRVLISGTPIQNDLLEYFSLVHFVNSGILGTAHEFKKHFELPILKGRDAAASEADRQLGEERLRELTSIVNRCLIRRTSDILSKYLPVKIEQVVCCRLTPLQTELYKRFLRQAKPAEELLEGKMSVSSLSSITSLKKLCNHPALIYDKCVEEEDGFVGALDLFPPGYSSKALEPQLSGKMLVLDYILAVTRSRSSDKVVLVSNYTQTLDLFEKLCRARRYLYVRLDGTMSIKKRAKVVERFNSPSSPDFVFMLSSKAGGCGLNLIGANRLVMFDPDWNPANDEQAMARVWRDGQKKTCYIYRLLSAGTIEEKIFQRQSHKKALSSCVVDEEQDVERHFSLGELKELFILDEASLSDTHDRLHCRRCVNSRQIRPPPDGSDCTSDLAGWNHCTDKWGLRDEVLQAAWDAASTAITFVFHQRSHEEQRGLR
In words: inhibitors of human RAD54 branch migration, confirmation, biochemical, fluorescence, cherry-picked samples, dose series (AID 651657). It counts as functional.

The next assay concerns the target Protein Wnt-3a (Mus musculus, UniProt P27467). In words: Wnt3a-driven reporter signaling inhibition, dose response, selectivity assay for Gli-SUFU antagonist project, Wnt-LIGHT cells, luminescence (AID 651570).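 Note: Wnt-LIGHT reporter cells stimulated with conditioned medium from Wnt3a-producing cells.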 The note with it: read-out: IC50_Mean. It counts as functional.
Assay [4] is described as follows: CRF-BP/CRF-R2 complex antagonists, dose response, cell-based, uHTS hits, 384-well (AID 651639). It counts as functional, Homo sapiens. The note with it: read-out: IC50_Mean.
Assay [5] in a line: microbe, parasite or virus in culture. It counts as functional. The note with it: Mycobacterium tuberculosis.
The target in assay [6] is T4, Corticotropin-releasing factor receptor 2/Corticotropin-releasing factor-binding protein (Homo sapiens, UniProt P24387+Q13324).
T4 sequence (Q13324 whole entry): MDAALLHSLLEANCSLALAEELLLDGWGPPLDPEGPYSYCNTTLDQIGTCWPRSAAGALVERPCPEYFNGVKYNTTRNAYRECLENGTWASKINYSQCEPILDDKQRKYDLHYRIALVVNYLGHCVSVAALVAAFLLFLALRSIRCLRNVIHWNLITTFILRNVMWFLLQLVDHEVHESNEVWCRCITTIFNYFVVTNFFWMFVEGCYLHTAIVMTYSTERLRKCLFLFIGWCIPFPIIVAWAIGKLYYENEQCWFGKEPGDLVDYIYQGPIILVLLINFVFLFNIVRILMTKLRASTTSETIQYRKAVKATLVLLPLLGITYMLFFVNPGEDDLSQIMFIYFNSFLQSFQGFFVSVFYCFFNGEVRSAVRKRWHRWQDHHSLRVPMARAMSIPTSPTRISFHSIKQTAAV
T4 sequence (P24387 whole entry): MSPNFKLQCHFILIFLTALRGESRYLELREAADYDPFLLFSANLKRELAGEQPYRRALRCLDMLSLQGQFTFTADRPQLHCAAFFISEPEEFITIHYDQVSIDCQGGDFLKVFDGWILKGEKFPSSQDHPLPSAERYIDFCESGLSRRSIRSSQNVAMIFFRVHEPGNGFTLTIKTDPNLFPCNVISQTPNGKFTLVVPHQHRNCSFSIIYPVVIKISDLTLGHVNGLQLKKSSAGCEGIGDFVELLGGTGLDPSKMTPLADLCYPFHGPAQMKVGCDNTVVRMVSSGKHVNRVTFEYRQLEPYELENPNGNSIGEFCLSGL
In words: activators of CRF receptor 2 with binding protein – uHTS hits, confirmation (AID 602473). It counts as functional. The note with it: read-out: EC50_Mean.

Assay [7] has as its target T4, Corticotropin-releasing factor receptor 2/Corticotropin-releasing factor-binding protein. Nature of the assay: Dose Response confirmation of uHTS hits for small molecule antagonists of the CRF-binding protein and CRF-R2 receptor complex. It counts as functional. The note with it: read-out: IC50_Mean.
Assay [8] can be described thus: Shn3 3'UTR reporter inhibitors, dose response, cell-based, Clone20 osteoblasts, firefly luciferase, cherry-picked (AID 624132).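 Note: firefly luciferase luminescence from reporter carrying the Shn3 3'UTR in osteoblasts.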 It is filed as functional.
Assay [9] can be described thus: inhibitors of intracellular T. cruzi replication, confirmation, NIH3T3 host cells, beta-gal luminescence (AID 2044).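 Note: intracellular parasites grown in NIH/3T3 mouse fibroblasts as host cells; luminescent beta-galactosidase reporter signal from transgenic T. cruzi replicating inside host cells; inhibitors lower the luminescence signal.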 It is filed as functional, cell-based.
Assay [10] can be described thus: HepG2 cell cytotoxicity, dose response, cytotoxicity control for Shn3 inhibitor project, CellTiter-Glo, cherry-picked (AID 624134). It is filed as functional, cell-based. In general terms: In ATP-based viability assays light output follows the ATP content of the culture.
Assay [11] in a line: control 3'UTR Renilla luciferase suppression, dose response, counter-screen for Shn3 inhibitor project, cell-based, Clone20-Shn3RL, cherry-picked (AID 624133). It counts as functional. In general terms: Counterscreens check selectivity or assay interference.
Assay [12] addresses DNA dC->dU-editing enzyme APOBEC-3A (Homo sapiens, UniProt P31941). Nature of the assay: SAR analysis of small molecule inhibitors of APOBEC3A DNA Deaminase via a fluorescence-based single-stranded DNA deaminase assay. The note with it: read-out: IC50_Mean. It counts as functional.
The target in assay [13] is DNA dC->dU-editing enzyme APOBEC-3G (Homo sapiens, UniProt Q9HC16). Nature of the assay: APOBEC3G deaminase inhibitors, SAR follow-up, biochemical, fluorescence, single-stranded DNA substrate (AID 602136). The note with it: read-out: IC50_Mean. It counts as functional.
Assay [14] is described as follows: intracellular Trypanosoma cruzi inhibitors in host cells – cell-based, plate reader, cherry-pick samples, set 3, dose response (AID 651818).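 Note: compounds incubated with infected cells for about four days.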 It is filed as functional.

Active and inactive are the calls of the source.

Sequence of Protein Wnt-3a (P27467 whole entry): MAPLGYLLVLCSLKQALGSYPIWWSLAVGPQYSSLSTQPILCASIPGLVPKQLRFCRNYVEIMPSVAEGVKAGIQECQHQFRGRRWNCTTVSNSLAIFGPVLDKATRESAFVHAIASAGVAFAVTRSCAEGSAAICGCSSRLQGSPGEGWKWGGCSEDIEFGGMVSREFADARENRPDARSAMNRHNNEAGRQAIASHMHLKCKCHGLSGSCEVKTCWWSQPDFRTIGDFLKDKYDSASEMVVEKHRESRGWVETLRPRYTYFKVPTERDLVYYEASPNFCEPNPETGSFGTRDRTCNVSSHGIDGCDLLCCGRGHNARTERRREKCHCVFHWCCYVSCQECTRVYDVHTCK
Sequence of DNA dC->dU-editing enzyme APOBEC-3G (Q9HC16 whole entry): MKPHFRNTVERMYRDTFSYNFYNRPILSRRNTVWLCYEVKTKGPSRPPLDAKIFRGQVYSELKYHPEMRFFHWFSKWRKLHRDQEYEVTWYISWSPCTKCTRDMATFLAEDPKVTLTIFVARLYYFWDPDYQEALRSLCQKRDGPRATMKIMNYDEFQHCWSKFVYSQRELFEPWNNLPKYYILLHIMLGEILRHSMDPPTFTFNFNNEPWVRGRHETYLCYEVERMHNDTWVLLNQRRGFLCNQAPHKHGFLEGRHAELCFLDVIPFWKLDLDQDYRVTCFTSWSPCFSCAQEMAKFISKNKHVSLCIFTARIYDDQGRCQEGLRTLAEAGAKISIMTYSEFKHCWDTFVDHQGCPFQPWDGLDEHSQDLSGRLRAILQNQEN
Sequence of DNA dC->dU-editing enzyme APOBEC-3A (P31941 whole entry): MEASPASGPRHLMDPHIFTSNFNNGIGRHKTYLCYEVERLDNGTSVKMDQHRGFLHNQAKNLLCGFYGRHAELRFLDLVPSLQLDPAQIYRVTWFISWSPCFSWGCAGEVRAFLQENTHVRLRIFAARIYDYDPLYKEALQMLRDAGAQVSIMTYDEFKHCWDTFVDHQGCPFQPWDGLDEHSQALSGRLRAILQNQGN

For the compound `COc1ccc(CCNC(=O)c2cc3c(=O)n4cccc(C)c4nc3n(CCCN3CCOCC3)c2=N)cc1`, the EC50 in [1] is 66.4 µM (active); in assay [2], 192 µM (active). In [3], the AC50 is 16.2 µM (active).
In the case of `FC(F)Oc1ccc(-c2cn3c([n+]2-c2ccccc2)CCCCC3)cc1`, the IC50 at Protein Wnt-3a is 3.83 µM (active).
As to `COc1ccc(CCNc2nc(N3CCCCC3)nc(N3CCCCC3)n2)cc1OC`, the IC50 was > 20 µM (inactive) in assay [4] and 7.8 µM (active) in [7]. The CC50 in assay [5] is > 40 µM (active). In addition, the EC50 in assay [6] was > 53 µM (inactive).
For the compound `CC(=O)Nc1ccc(S(=O)(=O)N(Cc2ccccc2)C(C)C)cc1`, the IC50 on Protein Wnt-3a was 22.1 µM (inactive).
Consider `Cc1nn(-c2cccc(Cl)c2)c2nc(C(F)(F)F)nc(O)c12`, for which the IC50 in assay [4] is 17.8 µM (active).
Take `O=C(c1cc2nc(-c3ccc(F)cc3)cc(C(F)(F)F)n2n1)N1CCCCC1c1cccnc1` (centres undefined): the CC50 in assay [5] is > 40 µM (active). The values for the AC50 in assay [8], in [10] and in assay [11] were 2.37 µM (active), 5.1 µM (active) and 2.12 µM (active), respectively. For the same compound, the EC50 in assay [9] is 0.164 µM (active). Moreover, on Protein Wnt-3a, the IC50 is 3.57 µM (active).
Consider `CN1CCN(CCNC(=O)c2cc3c(=O)n(C)c4ccccc4c3n2C)CC1`, for which the AC50 in assay [3] is 35.3 µM (active).
Regarding `CCC(C(=O)Nc1nnc(SCCOC)s1)c1ccccc1` (centres undefined), the IC50 in assay [12] and in assay [13] was > 99 µM (inactive) throughout.
Regarding `Cc1ccc(CC(=O)Nc2nnc(-c3ccncc3)s2)cc1`, the IC50 in [12] and in assay [13] was > 99 µM (inactive) each time.
For the compound `Cc1ccc(S(=O)(=O)N(C)C[C@H]2Oc3ccc(NS(=O)(=O)c4cccs4)cc3CC(=O)N([C@H](C)CO)C[C@H]2C)cc1`, the AC50 in [14] was 2.05 µM (active).
On the same count and under the same terms, in the case of `COc1ccc(NC(=O)Nc2cccc3c2O[C@@H](CN(C)Cc2ccc(C(=O)Nc4ccccc4N)cc2)[C@H](C)CN([C@@H](C)CO)C3=O)cc1` it was 0.535 µM (active); in that of `COc1ccc(S(=O)(=O)Nc2cccc3c2O[C@H](CN(C)Cc2ccc(C(=O)Nc4ccccc4N)cc2)[C@@H](C)CN([C@H](C)CO)C3=O)cc1`, 4.11 µM (active).

The AC50 is the midpoint of the concentration-response curve, whichever way the signal moves.
